Assay results from patent US20240423907A1, “Improved Nasal Administration of Pharmaceutical Formulations” (Cyrano Therapeutics, Inc., priority 2022, published 2024).

Assays:
[1] = system: subject diagnosed with a sinus infection; assay: Treatment of sinusitis in a subject; assay type: in vivo; details: nasal spray device described herein, effective dose 2× daily in each naris
Text: A subject is admitted to a clinic for nasal congestion, nasal inflammation, facial pain (e.g., pain around the eyes, cheeks, nose and forehead). The subject is diagnosed with a sinus infection. The subject is prescribed a beclomethasone dipropionate composition in a nasal spray device described herein. The subject administers the nasal spray in an effective dose 2× daily in each naris. The nasal spray is characterized by a spray containing a D50 of about 15 μm to about 24 μm, a D90 of from about 30 μm to about 50 μm and where less than about 3% of the droplets in the plume of a spray have a size of less than about 10 μm.

[2] = system: subject diagnosed with allergic rhinitis; assay: Treatment of allergic rhinitis in a subject; assay type: in vivo; details: nasal spray device described herein, effective dose 1× daily in each naris
Text: A subject is admitted to a clinic for nasal congestion, sneezing, itchy eyes, and watery eyes. The subject is diagnosed with allergic rhinitis. The subject is prescribed a fluticasone propionate composition in a nasal spray device described herein. The subject administers the nasal spray in an effective dose 1× daily in each naris. The nasal spray is characterized by a spray containing a D50 of about 15 μm to about 24 μm, a D90 of from about 30 μm to about 50 μm, and where less than about 3% of the droplets in the plume of a spray have a size of less than about 10 μm.

SMILES | symptoms of the sinus infection (pain, nasal inflammation and congestion) after administration [1] | symptoms of allergic rhinitis (sneezing, itchy eyes, nasal congestion, watery eyes) after administration [2]
CCC(=O)OCC(=O)[C@@]1(OC(=O)CC)[C@@H](C)C[C@H]2[C@@H]3CCC4=CC(=O)C=C[C@]4(C)[C@@]3(Cl)[C@@H](O)C[C@@]21C [beclomethasone dipropionate] | reduced symptoms | –
CCC(=O)O[C@]1(C(=O)SCF)[C@H](C)C[C@H]2[C@@H]3C[C@H](F)C4=CC(=O)C=C[C@]4(C)[C@@]3(F)[C@@H](O)C[C@@]21C [fluticasone propionate] | – | reduced symptoms
